Results on one compound are retold here after US20080114027A1, “Method for treating delirium” (priority 2006, published 2008).

For one assay, the system named is rat tail-flick model. In words: Anti-nociceptive pain testing, rat tail-flick model. Type of assay: in vivo, Male Sprague-Dawley (CD) rats. The settings on record: 7.5 mg/kg i.p., magnitude and duration similar to morphine 1.3 mg/kg s.c., FIG. 1.
A further assay has as its system PDE-3. The following applies: cited from earlier work.
The next assay concerns PDE-4. The following applies: cited from earlier work.
The target of the next assay is PDE-10 (Homo sapiens, UniProt Q9Y233). The settings on record: cited from earlier work.
The target of another assay is PDE-11 (Homo sapiens, UniProt Q9HCR9). The settings on record: cited from earlier work.
Sequence of PDE-11 (Q9HCR9 whole entry): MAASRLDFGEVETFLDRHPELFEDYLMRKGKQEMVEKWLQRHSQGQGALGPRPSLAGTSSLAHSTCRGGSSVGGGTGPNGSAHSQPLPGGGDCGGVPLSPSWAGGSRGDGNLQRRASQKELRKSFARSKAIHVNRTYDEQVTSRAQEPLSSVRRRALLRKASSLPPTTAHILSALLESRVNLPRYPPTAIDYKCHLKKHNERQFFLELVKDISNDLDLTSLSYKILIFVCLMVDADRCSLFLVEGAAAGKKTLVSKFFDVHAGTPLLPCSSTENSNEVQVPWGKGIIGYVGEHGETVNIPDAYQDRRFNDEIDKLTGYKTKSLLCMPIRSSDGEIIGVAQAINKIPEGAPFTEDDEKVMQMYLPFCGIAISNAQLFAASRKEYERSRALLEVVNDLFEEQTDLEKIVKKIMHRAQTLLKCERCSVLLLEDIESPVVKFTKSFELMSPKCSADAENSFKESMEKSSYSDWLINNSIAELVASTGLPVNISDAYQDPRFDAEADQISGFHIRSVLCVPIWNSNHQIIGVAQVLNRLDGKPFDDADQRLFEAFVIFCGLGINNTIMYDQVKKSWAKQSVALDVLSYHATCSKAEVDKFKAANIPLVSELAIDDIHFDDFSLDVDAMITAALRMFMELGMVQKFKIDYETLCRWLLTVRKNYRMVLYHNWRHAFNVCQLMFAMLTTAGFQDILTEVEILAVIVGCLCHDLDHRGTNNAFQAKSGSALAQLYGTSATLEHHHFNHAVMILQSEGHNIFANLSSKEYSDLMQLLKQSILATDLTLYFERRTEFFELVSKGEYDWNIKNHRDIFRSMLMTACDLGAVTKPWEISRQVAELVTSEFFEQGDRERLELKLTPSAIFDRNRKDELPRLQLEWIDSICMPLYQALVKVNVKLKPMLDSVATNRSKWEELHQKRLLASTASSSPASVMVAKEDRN

Sequence of PDE-10 (Q9Y233 whole entry): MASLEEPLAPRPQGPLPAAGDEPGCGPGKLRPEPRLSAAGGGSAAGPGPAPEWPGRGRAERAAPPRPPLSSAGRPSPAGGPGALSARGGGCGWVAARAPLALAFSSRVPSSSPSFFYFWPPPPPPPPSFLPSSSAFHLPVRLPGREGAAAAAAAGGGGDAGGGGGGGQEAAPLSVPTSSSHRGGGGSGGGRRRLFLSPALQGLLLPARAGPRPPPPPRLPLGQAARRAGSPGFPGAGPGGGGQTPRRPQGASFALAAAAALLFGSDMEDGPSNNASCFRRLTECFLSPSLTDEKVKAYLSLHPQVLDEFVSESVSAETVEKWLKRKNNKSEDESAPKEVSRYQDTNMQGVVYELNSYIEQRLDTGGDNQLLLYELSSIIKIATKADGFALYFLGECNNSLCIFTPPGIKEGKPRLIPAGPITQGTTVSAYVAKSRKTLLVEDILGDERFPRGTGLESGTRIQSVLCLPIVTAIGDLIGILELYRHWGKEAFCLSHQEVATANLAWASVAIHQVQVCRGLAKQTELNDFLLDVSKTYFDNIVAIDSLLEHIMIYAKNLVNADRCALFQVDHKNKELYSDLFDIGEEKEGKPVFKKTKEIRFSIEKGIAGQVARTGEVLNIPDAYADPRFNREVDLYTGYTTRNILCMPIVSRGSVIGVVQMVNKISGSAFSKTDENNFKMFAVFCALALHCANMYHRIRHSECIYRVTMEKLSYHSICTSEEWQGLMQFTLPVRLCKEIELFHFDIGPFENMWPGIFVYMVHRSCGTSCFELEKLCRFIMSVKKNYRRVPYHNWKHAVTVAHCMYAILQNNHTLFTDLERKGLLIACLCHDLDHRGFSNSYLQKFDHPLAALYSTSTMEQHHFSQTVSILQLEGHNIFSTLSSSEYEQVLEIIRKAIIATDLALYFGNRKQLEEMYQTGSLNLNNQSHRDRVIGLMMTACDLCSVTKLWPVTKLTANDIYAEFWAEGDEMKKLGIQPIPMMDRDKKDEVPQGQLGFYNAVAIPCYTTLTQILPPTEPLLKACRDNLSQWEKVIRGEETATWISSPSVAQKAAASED

For the compound `CC(C)C(=O)c1c(C(C)C)nn2ccccc12` [ibudilast, 2-methyl-1-(2-(1-methylethyl)pyrazolo(1,5-a)pyridin-3-yl)1-propanone], the “acute analgesic efficacy (tail-flick latency time)” value in the assay on rat tail-flick model was “increased the latency time”. The PDE inhibitory activity entry with PDE-3, in the assay with PDE-4, at PDE-10 and at PDE-11 was “most active” in each case.
